Values of other authors in patent publication US20090234270A1, “Therapy and device for treatment of nail infections” (Ondine International, Ltd., priority 2008, published 2009).

Columns and labels:
[1] = in vivo, po
[2] = tested on: onychomycosis

OC(Cn1cncn1)(Cn1cncn1)c1ccc(F)cc1F [Fluconazole]
side effects [1]: severe side effects

CN(C/C=C/C#CC(C)(C)C)Cc1cccc2ccccc12 [Lamisil, terbinafine]
nail clearing, share of patients ([2]; oral, once a day for 90 days, clearing for one year): 70-80%

CC12CCC(CC1=O)C2(C)C (stereo not drawn) [camphor]
solubility in water: poorly soluble in water

COC1=CC(=O)C[C@@H](C)[C@]12Oc1c(Cl)c(OC)cc(OC)c1C2=O [Griseofulvin]
efficacy in onychomycosis ([2]; oral medicine): largely ineffectual | side effects [1]: undesired side effects

CCC(C)n1ncn(-c2ccc(N3CCN(c4ccc(OCC5COC(Cn6cncn6)(c6ccc(Cl)cc6Cl)O5)cc4)CC3)cc2)c1=O (stereo not drawn) [itraconazole]
side effects [1]: somewhat severe
